Data as given in US7288273B1, “Gallotannins and ellagitannins as regulators of cytokine release” (The Penn State Research Foundation, priority 2000, dated 2007).
Values joined by “and” are separate entries in the source; they are usually repeats but may differ in a detail not shown here. Identical values can stand only once.

Key:
[1] = tested on: TNF-α secretion from h-PBMC's; assay: TNF-α release from h-PBMC's, ELISA; assay type: cell-based, human
Protocol: (§1) Authentic samples of agrimoniin and coriariin A were supplied by Professor Yoshida (Okayama University, Japan). Dimeric gallotannin (analog of coriariin A) and β-D-PGG were synthesized as described. LPS (E. coli 055:B5 phenol extract, MW range 50-100 KD). Ficoll-Histopaque (ρ=1.077 g/mL), Fetal Bovine Serum, sterile, hybridoma tested (FCS), gentamicin 10 mg/mL. L-glutamine, 200 mM. Dextran B-512 Leuconostoc Av M.W. 580000, and Trypan Blue stain were purchased from Sigma. Hanks Buffer Saline Solution 1×, with phenol red, mediatech (HBSS) and RPMI 1640 1×, mediatech were purchased from Fisher Scientific, Human IL-1β and TNF-α Enzyme Linked ImmunoSorbent Assay (ELISA) kits were purchased from R and D Systems, Minneapolis, Minn. Fresh heparinized blood was obtained from health human subjects (ages 20-34).
(§2) Dose-Response Data: General Procedure. H-PBMC's were isolated by reported procedures (10. 18). The cells counted and the viability was determined by Trypan Blue exclusion (typically, viability exceeded 95%). The concentration of the cells in the 0.5 mL wells was adjusted to 1×10^6 cells/well by diluting with the required amount of RPMI.
(§3) The appropriate amount of a tannin (or LPS) stock solution in HBSS was added to each well to furnish the concentration values reported in the Figures. […] The culture plates were incubated in a 5% CO2, 37° C. humidified incubator for the indicated time. At the end of the time interval, 450 μL of the culture supernatant from each well was harvested, after centrifugation at 400 g, 25° C., 10 min. with brake, and stored at −78° C. pending ELISA analysis for the cytokine(s). The ELISA assays were conducted per the manufacturer's instructions using standard calibration curves to calculate cytokine concentration from observed absorbance readings. The cytokine values reported are averages of three runs±SE.
(§4) The dimeric antitumor ellagitannins coriariin A and agrimoniin, the monomeric gallotannin β-D-pentagalloylglucose (β-D-PGG) and the dimeric gallotannin of this invention were all examined in this study. The dimeric gallotannin is an analog of coriariin A and is identical to the parent ellagitannin except that the galloyl rings at O(4) and O(6) are not joined in a hexahydroxydiphenoyl (HHDP) linkage. h-PBMC's were incubated with the compound under investigation for the indicated length of time and the amounts of both IL-1β and, independently, TNF-α, present in the culture supernatants was determined using commercially available ELISA kits. In each case, LPS was used as a positive control while untreated cells were reserved as negative controls.
In the first study, the induction of TNF-α secretion from h-PBMC's in the presence of each compound 17c-21c was measured. The h-PBMC's were incubated with each compound for 24 hours. The TNF-α levels in the cell culture supernatant were assayed by Enzyme Linked ImmunoSorbant Assay (ELISA). The data point for each assay represent the mean of triplicate measurements. […] (See FIG. 11).

[2] = tested on: IL-1β secretion from h-PBMC's; assay: IL-1β release from h-PBMC's, ELISA; assay type: cell-based, human; conditions: h-PBMC's
Protocol: as §1, §2, §3, §4
In the third study, compounds 17c-20c were examined for their ability to induce secretion of IL-1β from h-PBMC's (FIG. 16). Recall from the introduction that the cytokine IL-1β is also released in an LPS-stimulated septic shock response. The compounds that cause very little secretion of IL-1β or none at all will be the optimal compounds for potential septic shock therapeutics because they will be less likely themselves to induce a septic shock response.

[3] = tested on: LPS induced TNF-α secretion from h-PBMC's; assay: Inhibition of LPS induced TNF-α secretion from h-PBMC's; assay type: cell-based, human; conditions: h-PBMC's
Protocol: In the second study, the ability of compounds 17c-20c to inhibit LPS induced TNF-α production in h-PBMC's was investigated using four assays. The first experiment was a kinetics run in which the h-PBMC's were initially incubated with a fixed concentration of LPS (5 μg/mL) for 45 minutes. This incubation period was followed by addition of a fixed concentration (10 μg/mL) of compounds 17c-20c. The cells were harvested at varying intervals of time. […] The optimal time was determined by comparing the amount of TNF-α secreted by LPS alone to the amount of TNF-α secreted by LPS and substrate at each time point.
The second assay determined the minimum amount of substrate required for inhibition. LPS (10 μg/mL) was incubated with h-PBMC's for 45 minutes followed by addition of 17c-20c at varying concentrations. The cell culture supernatant was harvested after 8 hours. The inherent variability in using cells from different subjects, or in the day of assay, made it difficult to compare overall effectiveness of inhibitors. Therefore, to more easily identify the concentration at which maximum inhibition occurs for a given compound, the TNF-α secretion was normalized by calculating a percent of maximum secretion value (based on LPS alone) (FIG. 13). […] The optimal concentration for inhibition varied between substrates, but the general dose response trend was the same. Overall, the maximum inhibition was 45% for 18c and 20c, and 25% for 19c.
The third assay investigated the ability of 17c, 18c, and 20c to inhibit LPS induced TNF-α secretion using a smaller dosage of LPS (5 μg/mL) (FIG. 14). Again, the response was dose dependent. The maximum inhibition was 45% for 17c and 20c, and 35% for 18c.
In the fourth assay the varying concentrations of substrates 17c-20c and LPS were added at the same time to determine the effect of addition sequence on the inhibition of TNF-α secretion (FIG. 15). The addition time seemed to make a difference in the overall dose response trend. However, maximum inhibition was the same as when the compounds were added 45 minutes after LPS addition (about 40% for each compound).
Finally, in the last study, analogs 19c and 20c were again tested for inhibition LPS induced TNF-α secretion (FIG. 17). In this assay a smaller dose of LPS was used to determine if inhibition was greater when much lower doses of LPS were present. The substrates were added 45 minutes after LPS addition and the cells were harvested after 8 hours. It doesn't appear as though the substrates are better inhibitors when smaller amounts of LPS are used, again perhaps reflecting receptor saturation with LPS at this dosage.

sarcoma-180 tumors = conditions: cited from earlier work; for life span increase / regressors: Miyamoto's mouse studies, sarcoma-180; for antitumor effect, in words: mice infected with sarcoma-180 tumors
[4] = tested on: LPS induced secretion of TNF-α; assay: In vivo study in rats given LPS with or without β-PGG
Protocol: The ability of β-PGG to function in vivo was investigated in collaboration with Dr. Charles Lang of the Hershey Medical School. In this experiment, two groups of rats were used. One group was intravenously administered 1 mg/kg of LPS as well as 25 mg of β-PGG. The second group was given only 1 mg/kg of LPS. […] These preliminary in vivo results were encouraging, however several problems with the use of β-PGG as an inhibitor are evident. A large amount of β-PGG was required to elicit inhibition because β-PGG is a small monomeric gallotannin that is able to interact with other blood proteins such as rat serum albumin.

[5] = in vivo; cited from earlier work
[6] = tested on: IL-1β secretion from h-PBMC's; conditions: cited from earlier work
L929 murine fibroblast = assay: qualitative L929 murine fibroblast lysis assay of h-PBMC supernatant; assay type: cell-based
Text: This indirect measure of TNF-α levels in the h-PBMC supernatant provided the first evidence which implicated this cytokine in tannin-mediated antitumor activity and encouraged a more quantitative assessment of the TNF-α liberating capacity of agrimoniin and the related species as described below.

[7] = fixed concentrations, time course
[8] = rats, 1 mg/kg LPS intravenously and 25 mg β-PGG

**Q.** With `O=C(OCC1OC(OC(=O)c2cc(O)c(O)c(O)c2)[C@H](OC(=O)c2cc(O)c(O)c(O)c2)[C@@H](OC(=O)c2cc(O)c(O)c(O)c2)C1OC(=O)c1cc(O)c(O)c(O)c1)c1cc(O)c(O)c(O)c1` (stereo partly drawn) [Compound 1, β-D-pentagalloylglucose] as the compound, how does the “TNF-α secretion from h-PBMC's, in words” value [1] read?
**A.** The value was “much less TNF-α discharge”.

**Q.** And the “TNF-α detected at 4 h reading” value ([1]; fixed concentrations, 4 h)?
**A.** The value was “only trace amounts”.

**Q.** And the “time of maximum TNF-α discharge” value [1, 7]?
**A.** Its value is “ca. 24 h”.

**Q.** And the “IL-1β detected at 4 h reading” value ([2]; fixed concentrations, 4 h)?
**A.** The value was “only trace amounts”.

**Q.** And the “time of maximum IL-1β discharge” value [2, 7]?
**A.** The value was “ca. 24 h”.

**Q.** What about the “IL-1β secretion from h-PBMC's, in words” value ([2]; listed as β-D-PGG) of the same compound?
**A.** Its value is “effective at stimulating the production of IL-1β”.

**Q.** And the “IL-1β secretion from h-PBMC's, in words” value ([2]; listed as β-PGG)?
**A.** The value was “high levels of IL-1β”.

**Q.** What about the “inhibition of LPS induced TNF-α secretion from h-PBMC's, in words” value [3] of the same compound?
**A.** Its value is “can inhibit LPS induced secretion of TNF-α”.

**Q.** And the life span increase (sarcoma-180 tumors)?
**A.** Its life span increase is 82%.

**Q.** What about the regressors (sarcoma-180 tumors) of the same compound?
**A.** The regressors was 0/6.

**Q.** And the “antitumor effect, in words” value (sarcoma-180 tumors)?
**A.** Its value is “much less effective antitumor agents”.

**Q.** What about the “TNF-α secreted from 90 min” value ([4]; rats given LPS 1 mg/kg intravenously + 25 mg β-PGG (LPS + 1), 90 min, individual rats, ± SD) of the same compound?
**A.** Its value is 6919.4 ± 823.2 pg/mL and 4509.4 ± 583.3 pg/mL and 8060.7 ± 918.2 pg/mL and 1928.4 ± 331.5 pg/mL.

**Q.** And the “TNF-α secreted after 180 min” value ([4]; rats given LPS 1 mg/kg intravenously + 25 mg β-PGG (LPS + 1), 180 min, individual rats, ± SD)?
**A.** The value was 733.9 ± 28.3 pg/mL and 291.7 ± 68.0 pg/mL and 1347.5 ± 150.4 pg/mL and 129.9 ± 105.5 pg/mL.

**Q.** What about the “TNF-α secretion compared to LPS-only rats, in words” value [4, 8] of the same compound?
**A.** The value was “suppressed levels of TNF-α secretion”.

**Q.** And the “septic shock response (blood pressure)” value [4, 8]?
**A.** The value was “low blood pressure was still observed”.

**Q.** With TNF-α as the compound, how does the “clearance from serum, t1/2” value [5] read?
**A.** The value was 6.5 to 10.5 min.

**Q.** Which “IL-1β secreted above blank” value ([2]; 4 h treatment with 28 μM agrimoniin) does the source give for `O=C(O[C@H]1O[C@@H]2COC(=O)c3cc(O)c(O)c(O)c3-c3c(cc(O)c(O)c3O)C(=O)O[C@H]2[C@@H]2OC(=O)c3cc(O)c(O)c(O)c3-c3c(cc(O)c(O)c3O)C(=O)O[C@@H]12)c1cc(O)c(O)c(Oc2c(C(=O)O[C@H]3O[C@@H]4COC(=O)c5cc(O)c(O)c(O)c5-c5c(cc(O)c(O)c5O)C(=O)O[C@H]4[C@@H]4OC(=O)c5cc(O)c(O)c(O)c5-c5c(cc(O)c(O)c5O)C(=O)O[C@@H]34)cc(O)c(O)c2O)c1` [agrimoniin] here?
**A.** The value was “ca. 1 ng/mL”.

**Q.** What about the “antitumor effect, in words” value (sarcoma-180 tumors) of the same compound?
**A.** Its value is “induce tumor regression”.

**Q.** What about the “IL-1β secreted (reported earlier)” value ([6]; 20 μM agrimoniin) of the same compound?
**A.** Its value is “ca. 1.2 ng/mL”.

**Q.** What about the “time of maximal IL-1β secretion” value ([6]; agrimoniin-mediated, Miyamoto) of the same compound?
**A.** The value was “ca. 24 h”.

**Q.** And the “release of TNF-α, indirect measure by L929 lysis” value (L929 murine fibroblast)?
**A.** Its value is “promoted release of TNF-α in substantial amounts”.

**Q.** With `O=C(OC1OC2COC(=O)c3cc(O)c(O)c(O)c3-c3c(cc(O)c(O)c3O)C(=O)OC2C(OC(=O)c2cc(O)c(O)c(O)c2)C1OC(=O)c1cc(O)c(O)c(O)c1)c1cc(O)c(O)c(Oc2c(C(=O)OC3OC4COC(=O)c5cc(O)c(O)c(O)c5-c5c(cc(O)c(O)c5O)C(=O)OC4C(OC(=O)c4cc(O)c(O)c(O)c4)C3OC(=O)c3cc(O)c(O)c(O)c3)cc(O)c(O)c2O)c1` (stereo not drawn) [coriariin A] as the compound, how does the “TNF-α secretion from h-PBMC's, in words” value [1] read?
**A.** The value was “higher levels of TNF-α”.

**Q.** What about the “IL-1β inducing ability relative to agrimoniin on a molar basis” value ([2]; 4 h) of the same compound?
**A.** The value was “twice that of agrimoniin”.

**Q.** What about the life span increase (sarcoma-180 tumors) of the same compound?
**A.** Its life span increase is 238%.

**Q.** And the regressors (sarcoma-180 tumors)?
**A.** The regressors was 3/6.

**Q.** What about the “antitumor effect, in words” value (sarcoma-180 tumors) of the same compound?
**A.** The value was “induce tumor regression”.

**Q.** And the “release of TNF-α, indirect measure by L929 lysis” value (L929 murine fibroblast)?
**A.** Its value is “promoted release of TNF-α in substantial amounts”.
